Entries after “also recorded” stand apart in the source; their conditions may differ.
What was measured:
MDR1a-/- mice = assay: MDR1a-/- chronic model of IBD; assay type: in vivo
Procedure: MDR1a−/− model. Mice deficient in MDR1a spontaneously develop colitis. MDR1a−/− began receiving BT-63 treatment (oral, 20 mg/kg) at 6 weeks of age and continued treatment until 10 weeks of age. Mice were weighed and scored weekly. Treatment administration. BT-63 was prepared within a 0.5% methylcellulose (12-15 cP) solution. Dosage used was 20 mg/kg delivered once daily. Mice were weighed on a weekly basis to update dosage formulation. Dosage was calculated based off mean body weights for each gender. Oral dosage was delivered by orogastric gavage of dosage in 0.2 mL volume. Flow Cytometry. […]
collagenase (300U/mL) and DNase (50U/mL) for digestion. Tissues were digested for 60 minutes under stirring at 37° C. Resultant cellular suspensions were filtered through 100 μm strainers, centrifuged (300×g, 8 min), and washed in fresh RPMI. Following filtration of the resulting single cell suspensions, immune cells were purified by Percoll gradient of cell-containing 40% Percoll overlayed onto 70% Percoll solution. After centrifugation, interphase was collected and washed to obtain enriched colonic lamina propria cell fractions. Cells were labeled with mixtures of extracellular (CD45, CD3, CD4, CD8, CD19, NK1.1, CD25, F4/80, CD11b, Gr1, CX3CR1, CD64) and intracellular (Tbet, RORyT, FOXP3, IFNγ, IL17, IL10) antibodies in a sequential live staining in 96-well plates. Data was acquired using a FACS Celesta flow cytometer with FACSDiva software.

NZB/W F1 mice = assay: NZB/W F1 genetic mouse model of SLE (BT-63); assay type: in vivo
Procedure: NZB/W F 1 model. Twenty-four-week-old, female NZB/W F1 mice were randomized into vehicle or BT-63-treated arms based on baseline urine protein levels (n=10). BT-63 was orally administered daily at 20 mg/kg for 12 weeks. Mice were weighed on a weekly basis to update dosage formulation. Dosage was calculated based off mean body weights.
Immunological analysis. Blood was collected by cardiac puncture into EDTA tube. Plasma was separated following centrifugation and assayed by ELISA for anti-dsDNA antibodies and IFN-α. Urine was collected to assay for protein content to test for kidney function. Spleens were excised, crushed and filtered to provide a cellular suspension. Red blood cells were lysed. Cells were labeled with mixtures of extracellular (CD45, CD3, CD4, CD8, CD19, CD138, CD25, MHCII, CD11b, CD11c, CXCR3, IgD, IgM) and intracellular (BCL6, FOXP3, IL21, IL6, IL10) antibodies in a sequential live staining in 96-well plates in preparation for flow cytometry. Data was captured on a BD FACS Celesta and analyzed using FacsDiva.

[1] = system: LANCL2 deficient CD4+ T cells; assay: Immune effects in CD4+ splenocytes, flow cytometry (LANCL2 deficient); assay type: cell-based, C57BL/6 mice; details: in the absence of LANCL2, 0.1, 1 and 10 μM
Source text: (§1) Cell culture. Spleens were excised from C57BL/6 mice and assessed in wild-type and LANCL2 deficient states. Spleens were crushed between the frosted ends of microscope slides and filtered to provide a cellular suspension. Red blood cells were lysed through hypotonic lysis. Remaining cells were washed and filtered. CD4+ T cells were enriched within the suspension using magnetic sorting based negative selection. Cells were collected and plated within 96 well plates coated with anti-CD3 and cultured in the presence of BT-63 at 0, 0.1, 1 and 10 micromolar or BT-104A, BT-104B, or BT-104C at 0.1 micromolar for 48 h. During the last 6 h of culture, cells were stimulated with phorbol 12-myristate-13-acetate (PMA) and ionomycin.
(§2) Immunological analysis. Cells were collected from 96 well plates and stained with a cocktail of antibodies for immunophenotyping by flow cytometry. Culture supernatant was collected and assayed for cytokine concentrations by cytometric bead array. Data was captured on a BD FACS Celesta and analyzed using FacsDiva.

CD4+ T cells = assay: Immune effects in CD4+ splenocytes, flow cytometry (wild type); assay type: cell-based, C57BL/6 mice
Source text: as §1, §2

[2] = system: Non-obese diabetic (NOD) ShiLt mice; assay: NOD mouse model of T1D; assay type: in vivo
Procedure: NOD model. Non-obese diabetic (NOD) ShiLt mice were used in this study. NOD mice have numerous genetic mutations that enable the spontaneous onset of hyperglycemia and pancreatic pathologies associated with T1D. Mice entered into the experiment at 9 weeks of age and were monitored for a […]. Mice were treated daily with vehicle, 10 mg/kg BT-63, or 20 mg/kg BT-63 by oral gavage. Once weekly blood samples were collected from the tail vein to be tested for glucose concentration by glucometer. Mice were euthanized after 12 weeks for collection of blood and organs for immunological testing.
Treatment administration. BT-63 was prepared within a 0.5% methylcellulose (12-15 cP) solution. Dosage used was 10 or 20 mg/kg delivered once daily. Mice were weighed on a weekly basis to update dosage formulation. Dosage was calculated based off mean body weights for each gender. Oral dosage was delivered by orogastric gavage of dosage in 0.2 mL volume.
Immunological analysis. Blood was collected by cardiac puncture into heparinized tube. Plasma was separated following centrifugation and assayed by Luminex for cytokine and hormones related to the development of T1D. Spleens were excised, crushed and filtered to provide a cellular suspension. Red blood cells were lysed. Cells were labeled with mixtures of extracellular (CD45, CD3, CD4, CD8, CD19, NK1.1, CD25, F4/80, CD11b, Gr1, CX3CR1, CD64) and intracellular (Tbet, BCL6, FOXP3, IFNγ, IL21, IL10) antibodies in a sequential live staining in 96-well plates in preparation for flow cytometry. Data was captured on a BD FACS Celesta and analyzed using FacsDiva.

[3] = colonic lamina propria, four weeks oral 20 mg/kg
[4] = spleen, four weeks oral 20 mg/kg
[5] = 36 weeks of age (12 weeks of treatment), 20 mg/kg
[6] = spleen, 12 weeks oral 20 mg/kg, relative to vehicle
[7] = wild-type cells, 0.1, 1 and 10 μM, 48 h
[8] = 21 weeks of age, oral 10 or 20 mg/kg
[9] = spleen, 21 weeks of age, oral 10 or 20 mg/kg

## O=C(CN1CCN(C(=O)c2cccc(-c3nc4ccccc4[nH]3)n2)CC1)c1ccccc1 [BT-63, 2-(4-(6-(1H-benzo[d]imidazol-2-yl)picolinoyl)piperazin-1-yl)-1-phenylethanone]
MDR1a-/- mice; colon, four weeks oral 20 mg/kg
  proportions of regulatory CD4+ CD25+ T cells: increased
MDR1a-/- mice; [3]
  proportions of Th1: reduces
  proportions of Th17: reduces
  proportions of neutrophils: reduces
MDR1a-/- mice; [4]
  splenic CD25+ Tregs: increased
  splenic Th1 cells: decreased
MDR1a-/- mice; week four of treatment, oral 20 mg/kg
  maximal observed reduction of disease activity: 90%
NZB/W F1 mice; 12 weeks oral 20 mg/kg
  body weight change from baseline (weight loss): protected mice from weight loss
NZB/W F1 mice; 12 weeks oral 20 mg/kg, from baseline
  proteinuria score: prevented worsening
NZB/W F1 mice; [5]
  plasma IFN-α levels: reduced
  plasma anti-dsDNA levels: reduced
NZB/W F1 mice; spleen, 12 weeks oral 20 mg/kg
  CXCR3+ plasma cells: moderate reduction
  follicular B cells: moderate reduction
  plasma cells: moderate reduction
NZB/W F1 mice; [6]
  CD25+ FOXP3+ regulatory CD4+ T cells: greater reductions
  IL6+ myeloid cells: greater reductions
  IL21+ BCL6+ follicular helper T cells: greater reductions
[1]
  effects on IFNγ+, TNFa+ and IL10+ FOXP3+ CD4+ T cells: lost
CD4+ T cells; 0.1, 1 and 10 micromolar, FIG. 4A
  FOXP3+ CD4+ T cells: significant increase
CD4+ T cells; [7]
  proportions of IFNγ+ CD4+ T cells: reduced; also recorded: significant decrease
  proportions of IL10+ FOXP3+ CD4+ T cells: increased
  proportions of TNFa-producing CD4+ T cells: reduced
[2]; 20 mg/kg group compared to vehicle
  reduction of percentage of hyperglycemic mice: 50%
[2]; 21 weeks of age, 10 mg/kg
  HbA1c: reduced
[2]; 21 weeks of age, 20 mg/kg
  HbA1c: reduced
[2]; [8]
  plasma MCP-1: reduced
  plasma TNF: reduced
  plasma levels of C-peptide: increased
  plasma levels of insulin: increased
[2]; NOD mice, oral daily, from 19 weeks of age through end
  blood glucose levels: significantly lower
[2]; [9]
  CD4+IL10+ to CD4+IFNγ+ ratio: increased
  PD1+ CD4+ T cells: increasing
  T follicular helper (Tfh) cells (BCL6+IL21+): decreasing

— patent US12145920B2, “Lanthionine c-like protein 2 ligands, cells prepared therewith, and therapies using same” (NImmune Biopharma, Inc., priority 2019, dated 2024)
